Data: ChEMBL document CHEMBL5236644, “Multitargeting approaches to cognitive impairment: Synthesis of aryl-alkylpiperazines and assessment at cholinesterases, histamine H3 and dopamine D3 receptors” (Bioorg Med Chem, 2023)

Tests used:
D(3) dopamine receptor [1] = target: T1, D(3) dopamine receptor (Homo sapiens, UniProt P35462); experiment: Inhibition of human D3 receptor expressed in CHO cells at 10 uM by scintillation counting method relative to control; format: cell-based
Histamine H3 receptor [2] = target: T2, Histamine H3 receptor (Homo sapiens, UniProt Q9Y5N1); experiment: Inhibition of human H3 receptor at 10 uM incubated for 90 mins by scintillation counting method relative to control
T2 sequence (Q9Y5N1 whole entry): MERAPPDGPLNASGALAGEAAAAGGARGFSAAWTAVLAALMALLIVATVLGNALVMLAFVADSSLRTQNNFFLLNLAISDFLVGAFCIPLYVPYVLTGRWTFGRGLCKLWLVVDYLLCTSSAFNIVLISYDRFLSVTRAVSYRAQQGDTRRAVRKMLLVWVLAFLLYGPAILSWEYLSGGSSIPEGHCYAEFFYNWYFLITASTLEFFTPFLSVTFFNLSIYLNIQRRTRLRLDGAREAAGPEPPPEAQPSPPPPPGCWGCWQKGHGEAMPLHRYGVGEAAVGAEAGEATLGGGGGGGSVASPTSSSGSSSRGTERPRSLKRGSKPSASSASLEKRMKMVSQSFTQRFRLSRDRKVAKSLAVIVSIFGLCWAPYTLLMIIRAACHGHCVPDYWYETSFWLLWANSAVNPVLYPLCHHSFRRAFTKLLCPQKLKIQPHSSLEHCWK

[3] = target: Cholinesterase (Equus caballus) (UniProt P81908); experiment: Inhibition of equine BChE at 100 uM using acetylthiocholine chloride as substrate preincubated for 15 mins followed by substrate addition and measured after 30 mins by DTNB reagent based Ellman's method relative to control; settings: time 45.0 min
Chain of Cholinesterase (Equus caballus) (P81908 whole entry): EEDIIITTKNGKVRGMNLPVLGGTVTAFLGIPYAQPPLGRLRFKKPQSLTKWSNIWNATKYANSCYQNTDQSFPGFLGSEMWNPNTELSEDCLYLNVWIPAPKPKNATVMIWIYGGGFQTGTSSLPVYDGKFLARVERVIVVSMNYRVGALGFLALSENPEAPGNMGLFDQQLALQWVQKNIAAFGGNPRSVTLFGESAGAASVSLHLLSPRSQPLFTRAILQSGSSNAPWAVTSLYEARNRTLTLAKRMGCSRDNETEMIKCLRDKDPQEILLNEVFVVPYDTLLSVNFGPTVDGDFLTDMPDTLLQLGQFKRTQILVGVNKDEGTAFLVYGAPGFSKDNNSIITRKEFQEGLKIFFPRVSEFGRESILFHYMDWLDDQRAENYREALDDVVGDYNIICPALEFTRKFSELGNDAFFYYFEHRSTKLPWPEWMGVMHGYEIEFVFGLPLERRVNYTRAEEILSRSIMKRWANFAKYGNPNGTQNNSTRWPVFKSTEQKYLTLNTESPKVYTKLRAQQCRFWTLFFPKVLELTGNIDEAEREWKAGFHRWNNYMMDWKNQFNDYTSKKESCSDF

D(3) dopamine receptor [4] = target: T1, D(3) dopamine receptor; experiment: Binding affinity to human D3 receptor expressed in CHO cells assessed as inhibition constant by scintillation counting method; format: cell-based
Histamine H3 receptor [5] = target: T2, Histamine H3 receptor; experiment: Binding affinity to human H3 receptor assessed as inhibition constant incubated for 90 mins by scintillation counting method
Cholinesterase = Cholinesterase (Equus caballus, UniProt P81908); experiment: Inhibition of equine BChE using acetylthiocholine chloride as substrate preincubated for 15 mins followed by substrate addition and measured after 30 mins by DTNB reagent based Ellman's method
Chain of Cholinesterase (P81908 whole entry): as above

D(3) dopamine receptor [6] = target: T1, D(3) dopamine receptor; experiment: Inhibition of human D3 receptor expressed in CHO cells at 1 uM by scintillation counting method relative to control; format: cell-based
Histamine H3 receptor [7] = target: T2, Histamine H3 receptor; experiment: Inhibition of human H3 receptor at 1 uM incubated for 90 mins by scintillation counting method relative to control
Acetylcholinesterase = Acetylcholinesterase (Electrophorus electricus, UniProt O42275); experiment: Inhibition of electrical eel AChE using acetylthiocholine chloride as substrate preincubated for 15 mins followed by substrate addition and measured after 30 mins by DTNB reagent based Ellman's method
Chain of Acetylcholinesterase (O42275 whole entry): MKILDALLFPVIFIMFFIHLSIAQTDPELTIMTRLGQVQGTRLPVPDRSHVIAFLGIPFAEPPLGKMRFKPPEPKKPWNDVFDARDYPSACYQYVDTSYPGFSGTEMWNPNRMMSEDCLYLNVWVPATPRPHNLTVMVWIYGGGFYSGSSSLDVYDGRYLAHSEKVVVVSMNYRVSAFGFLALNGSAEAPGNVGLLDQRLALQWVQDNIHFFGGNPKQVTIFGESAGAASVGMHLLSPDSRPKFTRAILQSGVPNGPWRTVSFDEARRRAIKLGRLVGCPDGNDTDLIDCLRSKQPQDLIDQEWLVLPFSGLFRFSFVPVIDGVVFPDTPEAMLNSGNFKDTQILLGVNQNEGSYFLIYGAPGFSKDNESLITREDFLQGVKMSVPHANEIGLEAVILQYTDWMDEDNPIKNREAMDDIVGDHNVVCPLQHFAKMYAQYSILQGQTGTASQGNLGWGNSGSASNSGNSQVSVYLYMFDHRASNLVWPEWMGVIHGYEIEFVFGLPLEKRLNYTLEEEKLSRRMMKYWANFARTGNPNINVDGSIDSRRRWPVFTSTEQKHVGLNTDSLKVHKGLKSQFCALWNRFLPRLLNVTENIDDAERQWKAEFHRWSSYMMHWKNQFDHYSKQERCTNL

Histamine H3 receptor [8] = target: T2, Histamine H3 receptor; experiment: Inhibition of human H3 receptor incubated for 90 mins by scintillation counting method relative to control
D(3) dopamine receptor [9] = target: T1, D(3) dopamine receptor; experiment: Inhibition of human D3 receptor expressed in CHO cells assessed as inhibition constant by scintillation counting method; format: cell-based

T1 sequence (P35462 whole entry): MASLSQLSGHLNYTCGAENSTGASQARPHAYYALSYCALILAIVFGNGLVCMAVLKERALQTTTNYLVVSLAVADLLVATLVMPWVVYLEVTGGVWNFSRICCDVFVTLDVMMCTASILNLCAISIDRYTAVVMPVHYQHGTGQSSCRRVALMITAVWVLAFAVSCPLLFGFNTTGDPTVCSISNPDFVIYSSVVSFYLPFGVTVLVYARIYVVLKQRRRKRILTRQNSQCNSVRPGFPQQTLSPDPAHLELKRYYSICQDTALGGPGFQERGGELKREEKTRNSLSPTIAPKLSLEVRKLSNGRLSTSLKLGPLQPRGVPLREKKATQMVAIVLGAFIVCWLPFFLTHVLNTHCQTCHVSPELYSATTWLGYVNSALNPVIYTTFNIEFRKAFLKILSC

Structure (SMILES) | inhibition (D(3) dopamine receptor [1]) [%] | inhibition (Histamine H3 receptor [2]) [%] | inhibition [3] [%] | Ki (D(3) dopamine receptor [4]) [µM] | Ki (Histamine H3 receptor [5]) [µM] | IC50 (Cholinesterase) [µM] | other results
O=C(OCCCN1CCN(c2ccccc2)CC1)c1ccc2ccccc2c1 | 65.3 | 40.8 | 16.6 |  |  |  | 
CN1CCN(CCOc2ccc3ccccc3c2)CC1 | 15.2 | 39.3 | 48.4 |  |  |  | 
CN1CCN(CCCOC(=O)c2cc3ccccc3o2)CC1 | 9 | 82.3 | 31.7 | > 0.01 | 3.3 |  | 
CN1CCN(CCOC(=O)c2ccc3ccccc3c2)CC1 | 53.7 | 78.2 | 74.8 | > 0.01 | 2.2 | 57.5 | 
CN1CCN(CCCOc2ccc3ccccc3c2)CC1 | 22.8 | 80.5 | 70 | 0.0007 | 2.8 | 26.3 | 
O=C(OCCN1CCN(c2ccccc2)CC1)c1cccc2ccccc12 | 52.8 | 71.3 | 24.1 |  |  |  | 
c1ccc(N2CCN(CCOc3ccc4ccccc4c3)CC2)cc1 |  |  | 17.5 |  |  |  | inhibition (D(3) dopamine receptor [6]): 45%; inhibition (Histamine H3 receptor [7]): 23.3%
CN1CCN(CCCOC(=O)c2ccc3ccccc3c2)CC1 | 77.7 | 96.3 | 85.1 | 0.0031 | 1.1 | 43.7 | IC50 (Acetylcholinesterase): 97.8 µM
c1ccc(N2CCN(CCCOc3cccc4ccccc34)CC2)cc1 |  |  | 22.7 |  |  |  | 
CN(C)C(=O)Oc1cccc([N+](C)(C)C)c1 [NEOSTIGMINE] |  |  | > 95 |  |  | 0.16 | 
CC(C)N1CCN(CCCCOc2ccc3c(c2)NC(=O)CC3)CC1 |  |  |  |  |  | 16.7 | IC50 (Acetylcholinesterase): 1.6 µM
c1ccc2c(OCCN3CCN(c4ccncc4)CC3)cccc2c1 |  |  | 65.4 |  |  | 40.7 | inhibition (D(3) dopamine receptor [6]): 37.7%; IC50 (Acetylcholinesterase): 53.7 µM; inhibition (Histamine H3 receptor [7]): 54%
O=C(OCCCN1CCN(c2ccccc2)CC1)c1cc2ccccc2o1 |  |  | 46.8 |  |  |  | 
O=C(OCCN1CCN(c2ccccc2)CC1)c1ccc2ccccc2c1 | 32.8 | 61.5 | 36.5 |  |  |  | 
O=C(OCCCN1CCN(c2ccccc2)CC1)c1cccc2ccccc12 |  |  | < 10 |  |  |  | 
CN1CCN(CCOC(=O)c2cccc3ccccc23)CC1 | 49.7 | 69 | 38.3 |  |  |  | 
O=C(OCCCN1CCN(c2ccncc2)CC1)c1cc2ccccc2o1 |  |  | 49.9 | > 0.01 | 0.27 | 97.7 | inhibition (D(3) dopamine receptor [6]): 18%; IC50 (Acetylcholinesterase): 57.2 µM; inhibition (Histamine H3 receptor [7]): 88.8%
c1ccc(N2CCN(CCOc3cccc4ccccc34)CC2)cc1 | 34.5 | 39.8 | 26 |  |  |  | 
CN1CCN(CCOc2cccc3ccccc23)CC1 | 33.5 | 21.3 | 64.9 |  |  | 58.9 | 
Clc1ccc(CCCOCCCN2CCCCC2)cc1 |  |  |  |  |  |  | inhibition (Histamine H3 receptor [8]): 99.8%
O=C(NCCCN1CCN(c2ccncc2)CC1)c1cc2ccccc2o1 |  |  | 54.5 | > 0.01 | 0.91 | 85.1 | inhibition (D(3) dopamine receptor [6]): 23.5%; inhibition (Histamine H3 receptor [7]): 80.5%
CN1CCN(CCCOc2cccc3ccccc23)CC1 | 47.8 | 70 | 60.2 |  |  | 78.5 | 
c1ccc(N2CCN(CCCOc3ccc4ccccc4c3)CC2)cc1 |  |  | 65.7 | 0.00034 | > 10 | 53.7 | inhibition (D(3) dopamine receptor [6]): 80.5%; inhibition (Histamine H3 receptor [7]): 36.8%
CN1CCN(CCCOC(=O)c2cccc3ccccc23)CC1 | 71.5 | 83.8 | 50.6 | > 0.01 | 3.7 |  | 
O=C(NCCCCN1CCN(c2ccccc2)CC1)c1ccc2ccccc2c1 |  |  |  |  |  |  | Ki (D(3) dopamine receptor [9]): 0.00092 µM
